# Measurements from paper PMC11864979, “First-in-class ultralong-target-residence-time p38α inhibitors as a mitosis-targeted therapy for colorectal cancer” (Nature Cancer, 2025).
# Like-named read-outs stand apart in the source and are kept apart here.
# Columns and labels:
# Experiment in all cases: selectivity profiling in a panel of 340 wild-type kinases (Reaction Biology Europe)
# Format in all cases: binding
# 340 wild-type kinases [1] = target: T1, 340 wild-type kinases (Homo sapiens, UniProt P33981)
# T1 construct: purchased Reaction Biology Europe
# T1 sequence (P33981 1-857): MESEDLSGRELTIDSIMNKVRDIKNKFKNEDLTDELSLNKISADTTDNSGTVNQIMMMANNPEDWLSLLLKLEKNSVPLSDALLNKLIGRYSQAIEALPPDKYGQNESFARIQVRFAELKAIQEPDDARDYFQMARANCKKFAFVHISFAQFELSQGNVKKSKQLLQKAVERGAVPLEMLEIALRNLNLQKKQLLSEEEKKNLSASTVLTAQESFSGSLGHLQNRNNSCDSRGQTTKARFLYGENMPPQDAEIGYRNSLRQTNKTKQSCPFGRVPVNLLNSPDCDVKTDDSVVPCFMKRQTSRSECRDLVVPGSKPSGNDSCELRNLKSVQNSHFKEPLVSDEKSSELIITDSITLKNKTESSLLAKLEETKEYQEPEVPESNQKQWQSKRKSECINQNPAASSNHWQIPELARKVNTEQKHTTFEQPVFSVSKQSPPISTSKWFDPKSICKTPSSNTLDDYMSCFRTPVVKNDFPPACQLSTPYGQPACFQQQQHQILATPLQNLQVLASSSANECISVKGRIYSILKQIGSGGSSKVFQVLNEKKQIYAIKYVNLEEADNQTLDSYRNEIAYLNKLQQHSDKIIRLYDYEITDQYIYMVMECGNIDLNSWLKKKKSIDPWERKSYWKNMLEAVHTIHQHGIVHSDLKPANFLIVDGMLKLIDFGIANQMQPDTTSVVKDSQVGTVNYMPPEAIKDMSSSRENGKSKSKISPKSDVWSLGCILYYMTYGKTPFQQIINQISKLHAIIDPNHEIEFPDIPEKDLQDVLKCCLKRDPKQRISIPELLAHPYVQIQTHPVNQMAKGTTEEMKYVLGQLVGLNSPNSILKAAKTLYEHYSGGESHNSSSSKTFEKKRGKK
# 340 wild-type kinases [2] = target: T2, 340 wild-type kinases (Homo sapiens, UniProt Q13237)
# T2 construct: purchased Reaction Biology Europe
# T2 sequence (Q13237 1-762): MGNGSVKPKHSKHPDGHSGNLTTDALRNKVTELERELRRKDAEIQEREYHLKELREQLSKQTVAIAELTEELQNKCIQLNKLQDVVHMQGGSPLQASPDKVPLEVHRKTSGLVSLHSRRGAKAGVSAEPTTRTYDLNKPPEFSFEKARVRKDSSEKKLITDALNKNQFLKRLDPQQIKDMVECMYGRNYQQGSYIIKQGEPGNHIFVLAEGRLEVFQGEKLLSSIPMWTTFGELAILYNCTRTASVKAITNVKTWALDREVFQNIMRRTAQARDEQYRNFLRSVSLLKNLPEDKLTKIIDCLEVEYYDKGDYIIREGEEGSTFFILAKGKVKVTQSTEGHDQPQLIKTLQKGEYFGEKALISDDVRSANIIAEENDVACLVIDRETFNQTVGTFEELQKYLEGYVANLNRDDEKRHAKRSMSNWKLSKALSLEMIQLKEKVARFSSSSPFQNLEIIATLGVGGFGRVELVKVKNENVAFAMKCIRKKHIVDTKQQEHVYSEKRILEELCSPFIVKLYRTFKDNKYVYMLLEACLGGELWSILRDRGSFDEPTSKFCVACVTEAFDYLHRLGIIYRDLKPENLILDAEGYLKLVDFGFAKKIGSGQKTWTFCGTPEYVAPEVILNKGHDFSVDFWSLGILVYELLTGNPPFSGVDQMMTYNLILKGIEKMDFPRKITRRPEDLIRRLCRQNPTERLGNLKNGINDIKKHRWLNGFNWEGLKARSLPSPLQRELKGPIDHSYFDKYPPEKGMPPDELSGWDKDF
# 340 wild-type kinases [3] = target: T3, 340 wild-type kinases (Homo sapiens, UniProt Q15208)
# T3 construct: purchased Reaction Biology Europe
# 340 wild-type kinases [4] = target: T4, 340 wild-type kinases (Homo sapiens, UniProt Q5VT25)
# T4 construct: purchased Reaction Biology Europe
# 340 wild-type kinases [5] = target: T5, 340 wild-type kinases (Homo sapiens, UniProt Q9UPE1)
# T5 construct: purchased Reaction Biology Europe
# T5 sequence (Q9UPE1 whole entry): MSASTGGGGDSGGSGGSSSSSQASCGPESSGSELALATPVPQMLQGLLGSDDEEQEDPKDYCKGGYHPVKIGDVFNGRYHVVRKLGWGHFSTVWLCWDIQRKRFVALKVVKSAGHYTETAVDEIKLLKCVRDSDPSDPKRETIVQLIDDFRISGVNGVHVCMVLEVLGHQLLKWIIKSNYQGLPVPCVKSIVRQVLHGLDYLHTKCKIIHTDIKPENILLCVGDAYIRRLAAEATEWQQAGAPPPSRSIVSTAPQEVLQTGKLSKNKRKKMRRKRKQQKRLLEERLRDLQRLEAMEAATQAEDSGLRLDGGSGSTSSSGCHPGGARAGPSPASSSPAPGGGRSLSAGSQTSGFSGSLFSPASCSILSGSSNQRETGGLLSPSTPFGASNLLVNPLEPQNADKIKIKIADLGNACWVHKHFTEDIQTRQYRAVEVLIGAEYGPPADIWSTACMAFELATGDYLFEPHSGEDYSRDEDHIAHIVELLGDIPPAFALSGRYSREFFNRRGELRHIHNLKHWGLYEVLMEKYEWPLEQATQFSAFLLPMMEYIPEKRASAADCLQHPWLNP
# T4 sequence (Q5VT25 whole entry): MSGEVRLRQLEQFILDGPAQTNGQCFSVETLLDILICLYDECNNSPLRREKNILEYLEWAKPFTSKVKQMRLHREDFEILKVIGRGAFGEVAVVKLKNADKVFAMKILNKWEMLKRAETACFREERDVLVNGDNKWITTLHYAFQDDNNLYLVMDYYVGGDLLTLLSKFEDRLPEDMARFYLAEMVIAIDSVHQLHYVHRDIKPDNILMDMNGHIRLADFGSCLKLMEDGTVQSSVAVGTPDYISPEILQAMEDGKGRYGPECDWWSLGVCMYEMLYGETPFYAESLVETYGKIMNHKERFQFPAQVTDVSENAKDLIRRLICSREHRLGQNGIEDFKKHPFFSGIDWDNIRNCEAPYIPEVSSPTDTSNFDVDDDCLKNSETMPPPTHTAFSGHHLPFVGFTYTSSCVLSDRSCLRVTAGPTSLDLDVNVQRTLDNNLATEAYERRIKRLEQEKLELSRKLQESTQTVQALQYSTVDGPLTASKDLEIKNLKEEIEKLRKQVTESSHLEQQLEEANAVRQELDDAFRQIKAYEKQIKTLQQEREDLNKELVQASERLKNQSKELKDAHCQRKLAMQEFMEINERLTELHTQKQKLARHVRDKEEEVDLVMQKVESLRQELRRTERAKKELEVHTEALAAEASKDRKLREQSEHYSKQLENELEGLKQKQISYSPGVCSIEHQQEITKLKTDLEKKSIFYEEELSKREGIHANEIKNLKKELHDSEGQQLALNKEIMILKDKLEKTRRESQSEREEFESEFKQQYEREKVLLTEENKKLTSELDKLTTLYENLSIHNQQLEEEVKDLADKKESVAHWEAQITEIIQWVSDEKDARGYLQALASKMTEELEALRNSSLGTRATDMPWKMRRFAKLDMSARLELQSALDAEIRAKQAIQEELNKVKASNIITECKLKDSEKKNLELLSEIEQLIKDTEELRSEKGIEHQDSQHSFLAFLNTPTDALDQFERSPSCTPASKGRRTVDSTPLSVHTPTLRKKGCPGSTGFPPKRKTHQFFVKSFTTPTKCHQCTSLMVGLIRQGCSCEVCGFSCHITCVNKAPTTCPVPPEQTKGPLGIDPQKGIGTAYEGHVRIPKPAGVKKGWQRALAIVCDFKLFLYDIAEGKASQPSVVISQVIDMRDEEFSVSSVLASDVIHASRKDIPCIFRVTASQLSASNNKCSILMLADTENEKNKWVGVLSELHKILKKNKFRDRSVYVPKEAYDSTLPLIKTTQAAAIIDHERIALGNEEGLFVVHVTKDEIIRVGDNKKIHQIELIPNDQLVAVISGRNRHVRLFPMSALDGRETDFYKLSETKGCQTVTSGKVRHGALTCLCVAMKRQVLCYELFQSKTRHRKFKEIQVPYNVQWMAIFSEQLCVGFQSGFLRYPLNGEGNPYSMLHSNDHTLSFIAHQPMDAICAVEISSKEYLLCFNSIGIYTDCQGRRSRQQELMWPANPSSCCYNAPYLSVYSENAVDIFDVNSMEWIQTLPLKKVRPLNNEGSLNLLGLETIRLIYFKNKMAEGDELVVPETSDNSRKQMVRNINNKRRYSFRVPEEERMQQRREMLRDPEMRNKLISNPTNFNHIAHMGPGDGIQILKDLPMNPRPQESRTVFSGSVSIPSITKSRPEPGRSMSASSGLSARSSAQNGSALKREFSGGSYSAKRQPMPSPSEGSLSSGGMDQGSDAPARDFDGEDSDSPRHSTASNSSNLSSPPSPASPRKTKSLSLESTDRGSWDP
# T3 sequence (Q15208 whole entry): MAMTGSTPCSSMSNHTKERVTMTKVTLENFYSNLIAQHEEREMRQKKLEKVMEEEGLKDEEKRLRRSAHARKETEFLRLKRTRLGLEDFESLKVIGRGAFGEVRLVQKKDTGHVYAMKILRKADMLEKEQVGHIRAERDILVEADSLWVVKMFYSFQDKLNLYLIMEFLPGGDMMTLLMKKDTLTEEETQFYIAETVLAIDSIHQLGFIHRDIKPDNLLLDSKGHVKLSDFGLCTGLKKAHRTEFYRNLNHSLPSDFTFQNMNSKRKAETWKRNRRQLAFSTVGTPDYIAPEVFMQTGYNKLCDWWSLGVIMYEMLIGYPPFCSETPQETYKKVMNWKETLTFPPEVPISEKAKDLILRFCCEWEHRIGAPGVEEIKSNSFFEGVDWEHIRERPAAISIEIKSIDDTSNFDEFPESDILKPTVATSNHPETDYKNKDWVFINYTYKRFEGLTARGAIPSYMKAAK
smiles,measurement,setting,value
CNC(=O)c1ccc2c(c1)C(=O)c1ccc(Nc3ccc(F)c(NC(=O)C4CC4)c3)cc1CC2 [Compound 2015],remaining activity at 0.2 µM,"340 wild-type kinases [1]; 0.2 µM 2015, read-out: TTK residual activity",95.3%
same,remaining activity at 1 µM,"340 wild-type kinases [1]; 1 µM 2015, read-out: TTK residual activity",90.4%
same,remaining activity at 0.2 µM,"340 wild-type kinases [1]; TTK, 0.2 µM, read-out: residual activity",95.3%
same,remaining activity at 1 µM,"340 wild-type kinases [1]; TTK, 1 µM, read-out: residual activity",90.4%
same,remaining activity at 0.2 µM,"340 wild-type kinases [2]; 0.2 µM 2015, read-out: PRKG2 residual activity",112%
same,remaining activity at 1 µM,"340 wild-type kinases [2]; 1 µM 2015, read-out: PRKG2 residual activity",96.9%
same,remaining activity at 0.2 µM,"340 wild-type kinases [2]; PRKG2, 0.2 µM, read-out: residual activity",112%
same,remaining activity at 1 µM,"340 wild-type kinases [2]; PRKG2, 1 µM, read-out: residual activity",96.9%
same,remaining activity at 0.2 µM,"340 wild-type kinases [3]; 0.2 µM 2015, read-out: NDR1 residual activity",91.9%
same,remaining activity at 1 µM,"340 wild-type kinases [3]; 1 µM 2015, read-out: NDR1 residual activity",94%
same,remaining activity at 0.2 µM,"340 wild-type kinases [3]; NDR1, 0.2 µM, read-out: residual activity",91.9%
same,remaining activity at 1 µM,"340 wild-type kinases [3]; NDR1, 1 µM, read-out: residual activity",94%
same,remaining activity at 0.2 µM,"340 wild-type kinases [4]; 0.2 µM 2015, read-out: CDC42BPA residual activity",118%
same,remaining activity at 1 µM,"340 wild-type kinases [4]; 1 µM 2015, read-out: CDC42BPA residual activity",112%
same,remaining activity at 0.2 µM,"340 wild-type kinases [4]; CDC42BPA, 0.2 µM, read-out: residual activity",118%
same,remaining activity at 1 µM,"340 wild-type kinases [4]; CDC42BPA, 1 µM, read-out: residual activity",112%
same,remaining activity at 0.2 µM,"340 wild-type kinases [5]; 0.2 µM 2015, read-out: STK23 residual activity",90.7%
same,remaining activity at 1 µM,"340 wild-type kinases [5]; 1 µM 2015, read-out: STK23 residual activity",94.1%
same,remaining activity at 0.2 µM,"340 wild-type kinases [5]; STK23, 0.2 µM, read-out: residual activity",90.7%
